Laboratory results reported in US20190030018A1 (Celgene Corporation, priority 2017, published 2019).
Values after ≈ are worked out from the molar mass of the structure shown.

Key:
[1] = system: IDH2 mutant cell line TF1-R140Q; experiment: Proliferation (total, HSC and progenitor cell count) in the TF1 assay; assay type: cell-based
Description: Cells were plated at a density of 0.2e^6 cells/ml of 2 ml culture in 6 well plates.
TF1 cells were cultured in the following media: RPMI containing HEPES and L-glutamine, 10% FBS, Pen/Strep, G418 (final conc 500 μg/ml), and GM-CSF (final conc 5 ng/ml). The cells were cultured for 7 days, with or without compound treatment as described in FIG. 91.
For the hemoglobinization assay, TF1 cells were washed three times with PBS to remove residual GM-CSF then plated at (100,000 cells/ml). Cells were then induced to differentiate using EPO (2 unit/ml). Induction continued for 7 days with changing media on 4th day and adding media with fresh EPO. The cell pellets were collected and imaged for hemoglobinization content (as a surrogate for differentiation into blood lineage). Cells were pelleted, washed, stained with a panel of antibodies and analyzed by flow cytometry, using the following antibodies: […]

[2] = system: GSPT1, Mcl-1, Bcl-2, cleaved caspase 3 in KG-1 cells; experiment: KG-1 western blots, 16 h; assay type: cell-based
Description: KG-1 cells were seeded in 6 well tissue culture plates at 500,000 cells per mL, 4 mL per well. […] Cells were then washed twice with cold PBS and lysed with M-PER lysis buffer (Thermo) supplemented with 150 mM NaCl and Halt protease and phosphatase inhibitor cocktail (Thermo) on ice for 30 min. Crude lysates were clarified by centrifugation (14000 rpm, 10 min, 4° C.) and total protein quantified by BCA assay. GSPT1 (Abcam, ab49878), Mcl-1 (CST, 4572), Bcl-2 (CST, 4223), cleaved caspase 3 (CST, 9664), and GAPDH (Santa Cruz, sc-47724) levels were probed by western and imaged on a LiCor infrared imager.

BMMCs from MDS patients = experiment: Ex vivo liquid culture of BMMCs from MDS patients, Compound 1 with everolimus (viable cell count); assay type: cell-based, human
Description: Cultures were maintained for 1 week and cell numbers were measured by viable cell count on days 1, 3 and 7 of culture.

physchem [3] = assay type: physicochemical
Excerpt: “Compound 1, Form C” or “Form C” or “API”” in the Examples herein refers to polymorph Form C of 2-(4-chlorophenyl)-N-((2-(2,6-dioxopiperidin-3-yl)-1-oxoisoindolin-5-yl)methyl)-2,2-difluoroacetamide. “Compound 1, Form A” or “Form A” in the Examples herein refers to polymorph Form A of 2-(4-chlorophenyl)-N-((2-(2,6-dioxopiperidin-3-yl)-1-oxoisoindolin-5-yl)methyl)-2,2-difluoroacetamide.

[4] = system: primary human tumor xenograft model GA0087; experiment: HuPrime gastric cancer xenograft GA0087 model, in vivo efficacy; design: species or system female BALB/c nude mice; conditions: single agent
Excerpt: Tumor fragments from stock mice were harvested and used for inoculation into mice. Each mouse was inoculated subcutaneously at the right flank with primary human tumor xenograft model GA0087 tumor fragment (P7, 2-3 mm in diameter) for tumor development. […] After tumor inoculation, the animals were checked daily for morbidity and mortality. At the time of routine monitoring, the animals were checked for any effects of tumor growth and treatments on normal behavior such as mobility, food and water consumption, body weight gain/loss, eye/hair matting and any other abnormal effect. Death of euthanized mouse was recorded. All groups were terminated on Day 40. Three tumors in each group, with tumor volume near median of each group were collected. Plasma of the same mice were collected. For comparison among three or more groups, one-way ANOVA was performed followed by multiple comparison procedures. All data were analyzed using SPSS 18.0. P values <0.05 is considered to be statistically significant.

physchem [5] = assay type: physicochemical; conditions: organic solvent or mixture, thermodynamic from solid, drug solubility in formic acid
Description: A solvent screen was conducted to identify suitable Class 3 solvents listed in the ICH (International Conference on Harmonisation) Q3C Guidance as the Class 3 solvents have a higher permitted daily exposure (PDE) level of 50 mg/day. A good solvent candidate was considered to have 1) good miscibility with water and 2) sufficiently low boiling point so that it can be easily removed during the lyophilization process.

[6] = system: peripheral blood mononuclear cells (PBMCs) from myelofibrosis patients; experiment: Colony forming assay using myelofibrosis patient samples; assay type: cell-based, human
Excerpt: The following samples were used:
MF13: De novo MF, characterized by JAK2 wt, FLT3 wt, NPM1 wt, CEBPA wt
MF14: De novo MF, characterized by JAK2 wt, CALR exon9 mut, ASXL1 wt, MPLwt

BON cells = experiment: Signaling and proliferation of BON cells, CellTiter-Glo assay (2D and 3D plates); assay type: cell-based; conditions: BON1, single agent
[7] = system: caspase-3 activation and GSPT1 degradation in BMMCs from a MDS patient; experiment: Apoptosis and GSPT1 degradation by flow cytometry 24 hours after exposure; assay type: cell-based, human; conditions: 24 hours exposure
physchem [8] = assay type: physicochemical; conditions: 25 °C, aqueous with cosolvent or surfactant or cyclodextrin, thermodynamic from solid, Solubility at 25° C. (mg/mL)
Description: Two studies were performed to evaluate the supersaturation risks of Kleptose based formulations. […] The second study is intended to evaluate the kinetics of drug precipitation in Formulation Ib.
In this experiment, ten solutions were prepared by dissolving Kleptose and formic acid in WFI. The Kleptose concentration in all the ten solutions varied from 30 mg/mL to 250 mg/mL, while the formic acid concentration was kept constant at 1.65 mg/mL as used in the bulk solution of formulation Ib. […] Then the sample of each solution was taken and centrifuged for assay testing.

[9] = system: GSPT1 and mTORC1 effectors in BON cells; experiment: Western blot of BON cell lysates after 120 h treatment; assay type: cell-based
Description: BON cells were cultured in DMEM: F12K media containing 10% fetal bovine serum and penicillin/streptomycin antibiotics. […] Cells were harvested and probed with antibodies for western blots and imaged using a Li-Cor Odyssey imaging system. All total and phosphorylated antibodies were obtained from Cell Signaling Technology.

physchem [10] = conditions: aqueous with cosolvent or surfactant or cyclodextrin
Description: In the first precipitation study, four solution formulations were prepared at a Kleptose concentration of 100 mg/mL. […] Then the solutions were stored in three conditions: (1) at ambient condition with mild mixing; (2) at ambient condition without mixing; (3) at 2-8° C. without mixing.
The corresponding drug concentration of each formulation was 300, 400, and 500 μg/mL so that the supersaturation ratio was about 5× for all the three formulations. […] In the study, the same experiments were repeated twice to evaluate the reproducibility of the results.

## O=C1CCC(N2Cc3cc(CNC(=O)C(F)(F)c4ccc(Cl)cc4)ccc3C2=O)C(=O)N1 (stereo not drawn) [Compound 1, 2-(4-chlorophenyl)-N-((2-(2,6-dioxopiperidin-3-yl)-1-oxoisoindolin-5-yl)methyl)-2,2-difluoroacetamide]
[1]
  proliferation (total, HSC and progenitor cell count): inhibition of proliferation
[2]
  Mcl-1 levels: reduce levels of Mcl-1
BMMCs from MDS patients; 37 nM
  effect of single agent: No effect
BMMCs from MDS patients; 37 nM, after 3 days of culture
  reduction of cell numbers: ~70%
BMMCs from MDS patients; higher concentrations
  cell number decrease: up to 95%
Physchem [3]
  Hygroscopicity: Not hygroscopic
  Solid State Stability: DS is physically stable under all storage conditions.
Physchem [3]; pH 5
  chemical stability in solution: chemically instable in solution above pH 5
Physchem [3]; water
  solubility: ≤ 1 µg/mL
[4]
  tumor growth inhibition (mean tumor volume): showed tumor growth inhibition
[4]; 1.25 mg/kg and 2.5 mg/kg
  anti-tumor activity: moderate anti-tumor activity
[4]; 5 mg/kg
  anti-tumor activity: prominent anti-tumor activity
Physchem [5]
  solubility: ~170000 µg/mL (≈ 368000 µM)
[6]; 14 days in methocult media, samples MF13, MF14
  number of colony forming cells: reduced by Compound 1 in a dose dependent manner
[6]; compared with samples from healthy volunteers
  IC50 in colony forming assay: lower than IC50s observed in samples from healthy volunteers
BON cells
  standalone activity on proliferation: no standalone activity
[7]
  Caspase 3 activation: activated
  GSPT1 degradation: degraded
Physchem [8]
  solubility at 72 h: 86 µg/mL (≈ 186 µM)
[9]
  GSPT1 degradation: dose dependent GSPT1 degradation
  effect on mTORC1 effectors (p4EBP1, phosphorylation of S6): no direct effect
Physchem [10]
  solubility at 2 days: 135 µg/mL (≈ 292 µM)
  solubility at 9 days: 115 µg/mL (≈ 249 µM)
  solubility at 34 days: 98 µg/mL (≈ 212 µM)
